Reference: paper PMC8480776, “Selenium Derivatives as Promising Therapy for Chagas Disease: In Vitro and In Vivo Studies” (ACS Infectious Diseases, 2021)

What was measured:
[1] = tested on: T. cruzi epimastigotes, Arequipa strain; experiment: Screening against extracellular epimastigotes, Arequipa strain; format: cell-based, Trypanosoma cruzi; conditions: for Selectivity index (SI), epimastigotes, Arequipa strain: IC50 Vero cells/IC50 epimastigotes; for IC50: Trypanosoma cruzi, 48 h + 24 h resazurin, read-out: Activity IC50, epimastigote form, Arequipa strain
[2] = tested on: T. cruzi epimastigotes, SN3 strain; experiment: Screening against extracellular epimastigotes, SN3 strain; format: cell-based, Trypanosoma cruzi; conditions: for Selectivity index (SI), epimastigotes, SN3 strain: IC50 Vero cells/IC50 epimastigotes; for IC50: Trypanosoma cruzi, 48 h + 24 h resazurin, read-out: Activity IC50, epimastigote form, SN3 strain
[3] = tested on: T. cruzi epimastigotes, Tulahuen strain; experiment: Screening against extracellular epimastigotes, Tulahuen strain; format: cell-based, Trypanosoma cruzi; conditions: for Selectivity index (SI), epimastigotes, Tulahuen strain: IC50 Vero cells/IC50 epimastigotes; for IC50: Trypanosoma cruzi, TULAHUEN, 48 h + 24 h resazurin, read-out: Activity IC50, epimastigote form, Tulahuen strain
Vero cells = experiment: Cytotoxicity test on Vero cells; format: cell-based; conditions: Chlorocebus sabaeus, 48 h + 24 h resazurin, read-out: Toxicity IC50 Vero cell
[4] = tested on: T. cruzi amastigotes, Arequipa strain; experiment: Screening against intracellular amastigotes, Arequipa strain; format: cell-based, Trypanosoma cruzi; conditions: for selectivity index (SI), Arequipa strain, am. forms: IC50 Vero cells/IC50 amastigotes; for IC50: Trypanosoma cruzi, amastigotes in Vero cells, 72 h, read-out: activity IC50, Arequipa strain, am. forms
[5] = tested on: T. cruzi trypomastigotes, Arequipa strain; experiment: Screening against bloodstream trypomastigotes, Arequipa strain; format: cell-based, Trypanosoma cruzi; conditions: for selectivity index (SI), Arequipa strain, trypom. forms: IC50 Vero cells/IC50 trypomastigotes; for IC50: Trypanosoma cruzi, bloodstream trypomastigotes, 24 h + 4 h resazurin, read-out: activity IC50, Arequipa strain, trypom. forms
[6] = tested on: T. cruzi amastigotes, SN3 strain; experiment: Screening against intracellular amastigotes, SN3 strain; format: cell-based, Trypanosoma cruzi
[7] = tested on: T. cruzi trypomastigotes, SN3 strain; experiment: Screening against bloodstream trypomastigotes, SN3 strain; format: cell-based, Trypanosoma cruzi
[8] = tested on: T. cruzi amastigotes, Tulahuen strain; experiment: Screening against intracellular amastigotes, Tulahuen strain; format: cell-based, Trypanosoma cruzi; conditions: Trypanosoma cruzi, TULAHUEN; amastigotes in Vero cells, 72 h; read-out: activity IC50, Tulahuen strain, am. forms
[9] = tested on: T. cruzi trypomastigotes, Tulahuen strain; experiment: Screening against bloodstream trypomastigotes, Tulahuen strain; format: cell-based, Trypanosoma cruzi; conditions: Trypanosoma cruzi, TULAHUEN; bloodstream trypomastigotes, 24 h + 4 h resazurin; read-out: activity IC50, Tulahuen strain, trypom. forms

Row | Compound | IC50 [1] | IC50 [2] | IC50 [3] | CC50 (Vero cells) | also measured
1 | N#C[Se]c1ccc(NC(=O)c2cccs2)cc1 [Compound 29] | 5.4 ± 0.8 µM | 8.9 ± 1.1 µM | 6.6 ± 0.4 µM | 60.9 ± 8.7 µM | Selectivity index (SI), epimastigotes, Arequipa strain [1]: 11; Selectivity index (SI), epimastigotes, SN3 strain [2]: 7; Selectivity index (SI), epimastigotes, Tulahuen strain [3]: 9; selectivity index (SI), Arequipa strain, am. forms [4]: 4; IC50 [4]: 15.4 ± 2 µM; selectivity index (SI), Arequipa strain, trypom. forms [5]: 5; IC50 [5]: 12.7 ± 1.2 µM
2 | N#C[Se]c1ccc(NC(=O)c2ccccc2)cc1 [Compound 21] | > 50 µM | 37.1 ± 4.6 µM | > 50 µM | < 50 µM | 
3 | O=P(Nc1ccccc1)(Nc1ccc([Se][Se]c2ccc(NP(=O)(Nc3ccccc3)Oc3ccccc3)cc2)cc1)Oc1ccccc1 (stereo not shown) [Compound 19] | > 50 µM | > 50 µM | > 50 µM | < 50 µM | 
4 | COc1ccc(C(=O)Nc2ccc([Se][Se]c3ccc(NC(=O)c4ccc(OC)cc4)cc3)cc2)cc1 [Compound 3] | > 50 µM | > 50 µM | > 50 µM | 252 ± 21.6 µM | 
5 | CCOP(=O)(Nc1ccc([Se]C#N)cc1)OCC [Compound 38] | > 50 µM | > 50 µM | > 50 µM | < 50 µM | 
6 | CSc1ccc(C(=O)Nc2ccc([Se]C#N)cc2)cc1 [Compound 34] | 16.4 ± 2 µM | 21 ± 2.7 µM | 29.1 ± 3.1 µM | 72.6 ± 9.9 µM | Selectivity index (SI), epimastigotes, Arequipa strain [1]: 4; Selectivity index (SI), epimastigotes, SN3 strain [2]: 3; Selectivity index (SI), epimastigotes, Tulahuen strain [3]: 2
7 | O=C(Nc1ccc([Se][Se]c2ccc(NC(=O)C34CC5CC(CC(C5)C3)C4)cc2)cc1)C12CC3CC(CC(C3)C1)C2 [Compound 11] | > 50 µM | > 50 µM | > 50 µM | 226 ± 19.1 µM | 
8 | O=C(/C=C/c1ccccc1)Nc1ccc([Se][Se]c2ccc(NC(=O)/C=C/c3ccccc3)cc2)cc1 [Compound 12] | > 50 µM | > 50 µM | > 50 µM | 280 ± 24.4 µM | 
9 | O=C(Nc1ccc([Se][Se]c2ccc(NC(=O)c3cccc4ccccc34)cc2)cc1)c1cccc2ccccc12 [Compound 13] | > 50 µM | > 50 µM | > 50 µM | 98.2 ± 12.8 µM | 
10 | O=C(Nc1ccc([Se][Se]c2ccc(NC(=O)c3ccccc3)cc2)cc1)c1ccccc1 [Compound 1] | > 50 µM | > 50 µM | > 50 µM | 800 ± 44 µM | 
11 | CCOP(=O)(Nc1ccc([Se][Se]c2ccc(NP(=O)(OCC)OCC)cc2)cc1)OCC [Compound 17] | > 50 µM | > 50 µM | > 50 µM | 183 ± 20 µM | 
12 | Cc1ccc(C(=O)Nc2ccc([Se][Se]c3ccc(NC(=O)c4ccc(C)cc4)cc3)cc2)cc1 [Compound 7] | > 50 µM | > 50 µM | > 50 µM | 341 ± 28.3 µM | 
13 | O=C(Nc1ccc([Se][Se]c2ccc(NC(=O)c3ccc(C(F)(F)F)cc3)cc2)cc1)c1ccc(C(F)(F)F)cc1 [Compound 6] | > 50 µM | > 50 µM | > 50 µM | 536 ± 39.2 µM | 
14 | O=C(Nc1ccc([Se][Se]c2ccc(NC(=O)c3ccco3)cc2)cc1)c1ccco1 [Compound 8] | > 50 µM | > 50 µM | > 50 µM | 1250 ± 97.7 µM | 
15 | N#C[Se]c1ccc(NC(=O)C23CC4CC(CC(C4)C2)C3)cc1 [Compound 31] | 4.6 ± 0.5 µM | 12.5 ± 1.6 µM | 8.1 ± 0.9 µM | < 50 µM | 
16 | N#C[Se]c1ccc(NC(=O)c2cccc3ccccc23)cc1 [Compound 33] | 9.4 ± 1.2 µM | 4.8 ± 0.6 µM | 10.8 ± 1.2 µM | 52.7 ± 4.9 µM | Selectivity index (SI), epimastigotes, Arequipa strain [1]: 6; Selectivity index (SI), epimastigotes, SN3 strain [2]: 11; Selectivity index (SI), epimastigotes, Tulahuen strain [3]: 5; selectivity index (SI), SN3 strain, am. forms ([6]; IC50 Vero cells/IC50 amastigotes): 3; IC50 ([6]; Trypanosoma cruzi, amastigotes in Vero cells, 72 h, read-out: activity IC50, SN3 strain, am. forms): 16.9 ± 1.4 µM; selectivity index (SI), SN3 strain, trypom. forms ([7]; IC50 Vero cells/IC50 trypomastigotes): 4; IC50 ([7]; Trypanosoma cruzi, bloodstream trypomastigotes, 24 h + 4 h resazurin, read-out: activity IC50, SN3 strain, trypom. forms): 14.1 ± 1.1 µM
17 | N#C[Se]c1ccc(NC(=O)c2ccc([N+](=O)[O-])cc2)cc1 [Compound 25] | 26.3 ± 2.1 µM | > 50 µM | 25.3 ± 4.1 µM | 516 ± 42.2 µM | Selectivity index (SI), epimastigotes, Arequipa strain [1]: 20; Selectivity index (SI), epimastigotes, Tulahuen strain [3]: 20; selectivity index (SI), Arequipa strain, am. forms [4]: 10; IC50 [4]: 49.3 ± 4.1 µM; IC50 [8]: > 50 µM; selectivity index (SI), Arequipa strain, trypom. forms [5]: 14; IC50 [5]: 35.8 ± 5.8 µM; IC50 [9]: 42.2 ± 3.9 µM
18 | O=C(Nc1ccc([Se][Se]c2ccc(NC(=O)c3ccno3)cc2)cc1)c1ccno1 [Compound 10] | > 50 µM | > 50 µM | > 50 µM | 212 ± 18.7 µM | 
